Results on three molecules are retold here after US10765638B2, “Particle formulation with polycation complex” (Yale University, priority 2017, dated 2020).

In data set [1] the test system is LC-1F. Particulars: read-out: IC50 for erlotinib (printed in the Afatinib column, marked &), cancerrxgene.org; cited from earlier work.
Data set [2] relates to H1975-OR xenografts. The data set can be described thus: NSCLC xenograft tumor growth. It is filed as in vivo, athymic Swiss nu/nu mice. Particulars: 5 mg/kg osimertinib oral daily; 5 mg/kg NGI-1-NP as printed in b391 (20 mg/kg elsewhere in the source); blank NPs 926±253 mm3. As for the experimental part:
The effects of NGI-1 were evaluated in Six-to-eight-week old female athymic Swiss nu/nu mice bearing bilateral flank xenograft tumors. Five days after inoculation, mice were randomized to receive i.v. NGI-1 NPs (20 mg/kg) or blank NPs three times per week for a total of 8 doses. […] Tumor size was measured three times per week and volume was calculated according to the formula π/6×(length)×(width)^2.

Data set [3] relates to H1975 and H1975-OR cells. The data set can be described thus: MTT proliferation assay. It is filed as cell-based. As to conditions: 1 μM Osimertinib. As for the experimental part:
The H1975 and A549 cell lines were purchased from ATCC (Manassas, Va.), the PC9 cell line was a gift from Katie Politi, and the HCC-827 and HCC-827-GR lines were gifts from Jeff Engelman (MGH, Boston Mass.). Cell lines were cultured in RPMI 1640+10% FBS supplemented with penicillin and streptomycin (Gibco, Life Technologies, Grand Island, N.Y., US) in a humidified incubator with 5% CO2, and they were kept in culture no more than 4 months after resuscitation from the original stocks. No additional authentication was performed. Mycoplasma cell culture contamination was routinely checked and ruled out using the MycoAlert Mycoplasma Detection Kit (Lonza, Rockland, Me. USA). To generate a TKI resistant cell lines, either PC9 or H1975 cells were exposed to increasing concentrations of gefitinib or osimertinib, respectively. Gefitinib or Osimertinib concentrations were increased stepwise when cells resumed growth kinetics similar to the untreated parental cells over a dose range from 10 to 500 nM. Resistant cell cultures were obtained ˜8-12 weeks after initiation of drug exposure. To confirm the emergence of a therapeutic resistant, MTT assays were performed after allowing the cells to grow in drug-free conditions for at least 4 days.
Growth rates were determined by CellTiter 96 NonRadioactive Cell Proliferation Assay (Promega; Madison, Wis., USA) according to the manufacturer's directions. Briefly, NSCLC cells (2×103) untreated or treated with 10 μM NGI-1, 100 nM Gefitinib, or 1 μM Osimertinib (Selleck Chemicals), were seeded in triplicate in 96-wells plates and grown in culture medium containing 10% serum. The media was changed with or without new inhibitor every 48 h. Cell numbers were estimated after 0, 3, and 5 days by adding MTT (3-(4,5-dimethylthiazol-2-yl)-2,5-diphenyltetrazolium bromide) reagent to the wells 4 h before taking the spectrophotometric reading (absorbance at 570 nm).
A general note: Formazan colour is commonly taken as a measure of viable cells.

The subject of data set [4] is D54-ERLucT xenografts. The data set can be described thus: Bioluminescent imaging of inhibition of N-linked glycosylation in xenografts. It is filed as in vivo, mice. As to conditions: 24 hours; tunicamycin 1 mg/kg, positive control. As for the experimental part:
All experimental procedures were approved in accordance with IACUC and Yale University institutional guidelines for animal care and ethics and guidelines for the welfare and use of animals in cancer research (Workman et al., Br J Cancer, 102:1555-77 (2010)). NGI-1 delivery to glioma xenografts was evaluated using a bioluminescent imaging platform that detects inhibition of NLG (Contessa at al., Clin Cancer Res., 16:3205-14 (2010)). Ten days after subcutaneous injection of 1×10^7 gliomas cells, mice bearing palpable tumors were treated with control or NGI-1 NPs (20 mg/kg), or tunicamycin 1 mg/kg and imaged 5-30 minutes after delivery of i.p. luciferin (150 mg/kg). Signal intensity was quantified for a region of interest (ROI) encompassing each tumor and induction of bioluminscence was calculated by comparing peak bioluminescent activity from pre- and post-treatment imaging at 24 and 48 hours.

The conditions of data set [5]: Contessa et al., Clin Cancer Res. 2010; cited from earlier work.

As a reminder, the IC50 is the concentration that inhibits the measured activity by half. For the molecule `C#Cc1cccc(Nc2ncnc3cc(OCCOC)c(OCCOC)cc23)c1` [erlotinib], the IC50 in data set [1] is 390 nM.

In the case of `C=CC(=O)Nc1cc(Nc2nccc(-c3cn(C)c4ccccc34)n2)c(OC)cc1N(C)CCN(C)C` [osimertinib], the “mean tumor volume at day 78” value in data set [2] was 584±296 mm^3. For the same molecule, the “sensitivity of proliferation to osimertinib” value in data set [3] (H1975-OR cells) is “resistant”; in data set [3] (H1975 cells) it was “sensitive”.

In data set [4], tunicamycin registered an induction of bioluminescence of 4.2 fold. Further, the toxicity entry in data set [5] is “significant toxicity both in vitro and in vivo”.
